What was measured:
T. thermophila = assay: Phagocytosis activity assay (India ink phagosome formation); type: cell-based, Tetrahymena thermophila; settings: for effect on rate of phagosome formation / phagocytic activity: 10 minutes drug/ink exposure, FIGS. 2-4; for effect of Pertussis toxin pretreatment on the compound's effect on phagocytosis: Pertussis toxin pretreatment (5 minutes), FIGS. 5-6
Experimental: Log-phase T. thermophila cultures were grown in 2% protease peptone, at 25° C. The cells were washed and resuspended in 10 mM HEPES, pH 7.4 (250,000 cells/ml). Test compounds were mixed with diluted India ink (1:25, v:v) in order to visualize the newly formed phagosomes. At t=0, the drug/ink mixture was added to the Tetrahymena cells, and at t=10 minutes, […] samples of cell suspension were removed and fixed in 10% formaldehyde. At least about 100 random cells from each sample were then examined using a light microscope. Phagocytic activity was assessed by calculating the ratio of cells with food vacuoles compared to the cells with no food vacuoles.

[1] = test system: Heterocapsa pygmaea cells; assay: Injury response assay, physical injury (ultrasound-induced oxidative burst, H2O2 by DCFH-DA); type: cell-based; settings: FIG. 16, read-out: inhibition of oxidative burst in injured cells
Experimental: The released reactive oxygen species were calibrated to H2O2, the least labile of the group. […] Specifically, by homogenization in a blender with 0.22 μm filtered seawater and 10 mM EDTA, and filtered through 4 layers of cheesecloth. Algal symbionts were pelleted out by centrifugation at 250×g and subsequently washed 10 times with 40 ml clean filtered seawater and pelleted by centrifugation at 750×g. The cells were further purified on Percoll® (Sigma, St. […] DNA staining using DAPI detected on epifluorescence microscopy was used to detect contaminants due to bacterial or coral cells. Cells isolated from live coral were diluted to a final concentration of about 5×10^5 cells/ml using a hemocytometer and maintained in filtered seawater. Heterocapsa pygmaea is grown in culture in F-1 media without silica. The cells were harvested in log growth phase and diluted to about 5×10^5 cells/ml using a hemocytometer. […] H2O2 concentration was calculated from a standard curve from DCFH-DA fluorescence (0.05 mM, redox sensitive probe, requires esterase (82 U) for detection of H2O2). Fluoresence was measured using a Perkin Elmer LS50B Fluorimeter, excitation 488 nm and emission 525 nm.

Tetrahymena cells = assay: Ca++ signaling assay (Calcium Orange fluorescence, intracellular calcium release); type: cell-based, Tetrahymena thermophila; settings: for effect of Pertussis toxin pretreatment on the compound's calcium release activity: 0.5 μg/ml Pertussis toxin for 5 minutes prior to treatment
Experimental: Cell density was adjusted to 500,000 cells/ml using a 10 mM HEPES and 2.5 mM Probenecid buffer (pH 7.4) (Sigma, St. Louis, Mo.). The cells were loaded with 3 μM Calcium Orange AM ester (Molecular Probes, Eugene, Oreg.) for 90 minutes in the dark. The cells were washed, resuspended in buffer, and incubated for 1 hour to allow de-esterification of the fluorescent probe. The cells were washed twice and placed in a 2 ml quartz cuvet. Calcium release was measured by an LS50B Perkin Elmer Fluorimeter (Ex=549, Em=576) (Perkin Elmer, Wellesley, Mass.) for a 20 minute period. The cells were exposed to the test compounds for 20 minutes and then the fluorescence was recorded. In some experiments, the cells were pretreated with 0.5 μg/ml Pertussis toxin for 5 minutes. FIGS. 7A-7C show Tetrahymena cells loaded with Calcium Orange under fluorescence microscopy (X400). Upon calcium binding to calcium orange, the intensity increases thereby indicating the release of intracellular calcium. FIG. 7A is a control.

[2] = Cell-free hydrogen peroxide scavenging (direct antioxidant) assay; settings: 50 μM
Experimental: A mixture of hydrogen peroxide and water without cells was mixed with the DCFH-DA dye and 82U of esterase as described above. To this mixture the drugs were added and results monitored on the fluorimeter.

Symbiodinium spp. cells = assay: Injury response assay, chemical injury (mastoparan) in Symbiodinium; type: cell-based; settings: 10 μM, FIG. 14
Experimental: (§1) To determine the protective effect of pseudopterosin compounds against chemical injury, mastoparan was administered to test cells and released reactive oxygen species calibrated to H2O2 was measured as an indicator of injury.
(§2) Symbiodinium spp. cells were isolated, prepared and identified as described in Example 3. Heterocapsa pygmaea was grown in culture in F-1 media without silica. The cells were harvested in log growth phase and diluted to about 5×10^5 cells/ml using a hemocytometer. […] The oxidative burst was prevented or inhibited by about 71% by incubating the H. pygmaea cells with a mixture comprising 25 μM of pseudopterosin compounds for 1 hour prior to exposure to mastoparan.
(§3) H2O2 concentration was calculated from a standard curve from DCFH-DA fluorescence (0.05 mM, redox sensitive probe, requires esterase (82 U) for detection of H2O2). Fluorescence was measured using a Perkin Elmer LS50B Fluorimeter, excitation 488 nm and emission 525 nm.

H. pygmaea cells = assay: Injury response assay, chemical injury (mastoparan-induced oxidative burst); type: cell-based, Heterocapsa pygmaea; settings: 10 μM, FIG. 14
Experimental: as §1, §2, §3

Molecule	effect on rate of phagosome formation / phagocytic activity (T. thermophila)	effect of Pertussis toxin pretreatment on the compound's effect on phagocytosis (T. thermophila)	effect of Pertussis toxin pretreatment on the compound's calcium release activity (Tetrahymena cells)	also measured
[Ca+2].[Cl-].[Cl-] [CaCl2]	increases the rate of phagocytic activity	–	–	–
c1ccc2c(c1)[I+]c1ccccc1-2 [DPI, Diphenylene iodonium chloride]	–	–	–	inhibition at 50 µM [1]: ~96%
CC(C)=C[C@H]1C[C@H](C)[C@H]2CC[C@H](C)c3c(O[C@@H]4OC[C@@H](O)[C@H](O)[C@H]4O)c(O)c(C)c1c32 [PsA, Pseudopterosin A]	decreases the rate of phagosome formation in a dose dependent manner	completely blocks the effect of PsA on phagocytosis	Pertussis toxin blocks PsA activity	effect of mastoparan on PsA activity (Tetrahymena cells; FIG. 10A): Mastoparan does not inhibit PsA; effect of Verapamil or Gd3+ on the effects of PsA (intracellular calcium release and phagosome formation) (Tetrahymena cells; T. thermophila): not inhibited by Verapamil or Gd^3+; effect of suramin pretreatment on PsA activity (Tetrahymena cells; suramin pretreatment (5 minutes), FIG. 10B): blocks PsA activity
COc1ccc2c(c1)CC[C@@H]1[C@@H]2CC[C@]2(C)[C@@H](NCCCCCCN3C(=O)C=CC3=O)CC[C@@H]12 [Pseudopterosin U73122]	–	not blocked by Pertussis toxin pretreatment	Pertussis toxin does not inhibit U73122 activity	–
O=C1O[C@H]([C@@H](O)CO)C(O)=C1O [ascorbic acid]	–	–	–	immediate reduction of the fluorescent signal in cell free system [2]: about 60%
mastoparan	–	–	inhibits the effects of mastoparan	effect of mastoparan on Symbiodinium spp. cells (Symbiodinium spp. cells): no effect; effect of mastoparan on oxidative burst in H. pygmaea (H. pygmaea cells): cause a large oxidative burst

— US20050026847A1, “Methods for treating, preventing, or inhibiting injuries, cell membrane stabilization, and calcium mobilization using pseudopterosin compounds” (priority 2003, published 2005)
